# Measured values from US10322187B2, “Reduced toxicity molecular conjugates of anti-fungal agents” (Lehigh University, priority 2015, dated 2019).
# Where two headings read alike, the source gives them in different places.
# Experiments:
# HEK293T cells = test: Inhibition of cell growth, MTT cell viability; assay type: cell-based, human; conditions: varying concentrations; FIG. 11
# Experimental: Human embryonic kidney HEK293 cells were cultured in Dulbecco's modified Eagle's medium (DMEM supplemented with 10% FBS, 100 U/mL penicillin, and 0.1 mg/mL SI-10 streptomycin) in a humidified atmosphere of 5% CO2 at 37° C.
# HEK293T cells were seeded in 96-well plates at a density of 6,000 cells/well and incubated overnight. Before treatment, compounds aliquots were solubilized in DMSO to obtain 10 mM stock solutions. Appropriate volumes of these stock solutions were added to DMEM media so the final concentration of DMSO is equal to 1%. After removal of cell media, 50 μL of treatment solutions were added to each well and incubated at 37° C. for 2 h. After treatment, the media was removed, and 100 μL of complete medium was added to each well before returning the plate to the incubator. Cell viability was determined after 72 h using the colorimetric MTT assay. Briefly, 10 μL of a 5 mg/mL MTT stock solution was added to the treated cells and incubated for 2 h at 37° C. The resulting formazan crystals were solubilized in 200 μL of DMSO, and the absorbance was measured at 580 nm using an Infinite 200 PRO microplate reader (Tecan). Cell viability was calculated against control cells treated with the vehicle in DMEM.
# sheep red blood cells = test: Hemolysis measurements, release of hemoglobin; assay type: cell-based
# Experimental: Sheep Red Blood Cells, 10%, in saline (Innovative Research, Novi, Mich.), were diluted in saline (pH 7.4) to a concentration of 4%, which corresponds to 4×10^7 cells/mL. All measurements were carried out in duplicate. Solutions of Amphotericin B (Sigma-Aldrich) were prepared by adding 10 μL of a DMSO solution containing a given concentration of the antibiotic (i.e., ranging from 0.2 mM to 50 mM) to 490 μL of PBS. After the resulting solution was vortex mixed for 30 seconds (s) it was incubated at 37° C. for 15 min. The resulting solution of antibiotic (500 μL) was then mixed with 500 μL of the 4% erythrocyte dispersion at 37° C. in a 1 mL plastic centrifuge vial to give a dispersion that was vortex mixed at slow rate for 5 s. After 1 h of incubation at 37° C., all samples were centrifuged (1500 g, Eppendorf centrifuge 5415C, 5000 rpm) at rt for 5 min. The supernatant (˜0.7 mL) from each plastic vial was carefully separated from sediment using a disposable glass pipette and quickly transferred to test tube. A volume of 50 μL of this supernatant was then transferred to a UV cell containing 500 μL of PBS that was maintained at 37° C. The UV spectrum was then scanned (450-650 nm) and the absorbance at 575 nm used to determine the extent of hemolysis. The extent of 0% and 100% of hemolysis was obtained from A575 values of experiments that were run in absence of AmphB (control, [A575,]o) and in presence, 100 μM AmphB ([A575]max), respectively.
# C. glabrata = test: Antifungal activities, MIC/MFC; assay type: cell-based
# Experimental: (§1) A similar sequence of reactions was carried out using lysine dicholamide in place of cholic acid afforded VJ-1147 of Table 2. To assess the antifungal properties of the diwalled VJ-1138 (Table 2) and 2a of Table 3, their in vitro activities were examined against four clinically relevant microbes, i.e., C. albicans, C. glabrata, C. neoformans, and C. gatti (Table 4).
# (§2) Minimum inhibitory concentrations (MIC) and minimum fungicidal concentrations (MFC) are the lowest concentrations that are required for completely inhibiting growth, and killing at least 99% of the fungi, respectively.
# (§3) The above molecules were tested for antifungal activity. Minimum inhibitory concentrations (MIC) and minimum fungicidal concentrations (MFC) are the lowest concentrations that are required for completely inhibiting growth, and killing at least 99% of the fungi, respectively. As is apparent from Table 4 below, there is a general trend; i.e., increased antifungal activity is observed as the length of the hydrocarbon chain that separates the facial amphiphile from the Amphotericin B moiety is decreased.
# C. gatti = test: Antifungal activities, MIC/MFC; assay type: cell-based
# Experimental: as §1, §2, §3
# C. neoformans = test: Antifungal activities, MIC/MFC; assay type: cell-based
# Experimental: as §1, §2, §3
# C. albicans = test: Antifungal activities, MIC/MFC; assay type: cell-based
# Experimental: as §1, §2, §3
# [1] = Critical aggregation concentration (CAC) by UV absorptivity; assay type: physicochemical; conditions: PBS, 37° C., absorptivity at 409 nm
# Description: If one lets: (i) T, m, and P represent the total, the monomeric, and the aggregate concentrations of this macrolide, respectively; (ii) ε represent the apparent molar absorptivity; and (iii) εm and εp represent the molar absorptivity for the monomeric and aggregate components, respectively, then it can be shown that ε=εp+(εm−εp)m/T. See Yamashita K, Janout V, Bernard E M, Armstrong D, and Regen, S L. Micelle/monomer control over the membrane disrupting properties of an amphiphilic antibiotic. J. Am. Chem. Soc. 117 (1995) 6249-6253. At concentrations that are in excess of its CAC, m is constant, and ε is expected to be inversely proportional to T. Thus, by measuring the apparent molar absorptivity as a function of the reciprocal of the concentration of VJ-1138, its CAC value is estimated to be 0.9 μM (from the intercept of two straight lines).
# Determination of Critical Aggregation Concentration (CAC) of AmphB and molecular conjugates. Solutions of AmphB and molecular conjugates in DMSO (Sigma-Aldrich) were prepared having a concentration of 1.00 mM. […] The UV spectrum was then recorded in the range of 250-550 nm. The absorbance at 408 nm was plotted as a function of the reciprocal value of the concentration of AmB and the critical aggregation concentration of the molecular conjugates was then determined, graphically.
# [2] = test system: C. albicans, C. glabrata, C. neoformans, and C. gatti; test: In vitro antifungal activity, general statements on the four microbes; assay type: cell-based; conditions: at 11 μM
# Experimental: as §1, §2
# [3] = at concentrations as high as 400 μM, 37° C. in PBS, pH 7.4
# [4] = summary, no concentration stated
# [5] = second Table 4 (Example 4), C. glabrata
# [6] = second Table 4 (Example 4), C. gatti
# [7] = second Table 4 (Example 4), C. neoformans
# [8] = second Table 4 (Example 4), C. albicans
compound,measurement,setting,value
CC1OC(O[C@H]2/C=C/C=C/C=C/C=C/C=C/C=C/C=C/[C@H](C)[C@@H](O)[C@@H](C)[C@H](C)OC(=O)C[C@H](O)C[C@H](O)CC[C@@H](O)[C@H](O)C[C@H](O)C[C@]3(O)C[C@H](O)[C@@H](C(=O)NCCCCCCCCNC(=O)CC[C@@H](C)C4CCC5C6C(O)CC7CC(O)CCC7(C)C6CC(O)C54C)[C@H](C2)O3)C(O)C(N)C1O (stereo partly drawn) [YYM-69],toxicity towards HEK293 cells,HEK293T cells,negligible cytotoxicity
same,hemolytic activity,sheep red blood cells; [3],negligible hemolytic activities
same,hemolytic activity,sheep red blood cells; [4],negligible hemolytic activity
same,MIC,C. glabrata; [5],>16/— μg/mL
same,MFC,C. gatti; [6],2 µg/mL
same,MIC,C. gatti; [6],1 µg/mL
same,MFC,C. neoformans; [7],2 µg/mL
same,MIC,C. neoformans; [7],1 µg/mL
same,MFC,C. albicans; [8],2 µg/mL
same,MIC,C. albicans; [8],2 µg/mL
"C[C@@H]1[C@H](O)[C@@H](C)/C=C/C=C/C=C/C=C/C=C/C=C/C=C/[C@H](O[C@@H]2O[C@H](C)[C@@H](O)[C@H](N)[C@@H]2O)C[C@@H]2O[C@](O)(C[C@@H](O)C[C@@H](O)[C@H](O)CC[C@@H](O)C[C@@H](O)CC(=O)O[C@H]1C)C[C@H](O)[C@H]2C(=O)O [AmphB, amphotericin B, reference compound]",critical aggregation concentration (CAC),[1],~0.9 µM
same,"EH50, concentration required to induce 50% release of hemoglobin from erythrocytes","sheep red blood cells; 37° C. in saline, pH 7.4",4 µM
same,MFC,"C. glabrata; Nakaseomyces glabratus, first Table 4, C. glabrata",1 µM
same,MIC,"C. glabrata; Nakaseomyces glabratus, first Table 4, C. glabrata, read-out: MIC",0.5 µM
same,MFC,"C. glabrata; Nakaseomyces glabratus, second Table 4 (Example 4), C. glabrata",1 µg/mL
same,MIC,"C. glabrata; Nakaseomyces glabratus, second Table 4 (Example 4), C. glabrata, read-out: MIC",0.5 µg/mL
same,MFC,"C. gatti; first Table 4, C. gatti, read-out: MFC",0.5 µM
same,MIC,"C. gatti; first Table 4, C. gatti, read-out: MIC",0.3 µM
same,MFC,"C. gatti; second Table 4 (Example 4), C. gatti, read-out: MFC",0.5 µg/mL
same,MIC,"C. gatti; second Table 4 (Example 4), C. gatti, read-out: MIC",0.3 µg/mL
same,MFC,"C. neoformans; Cryptococcus neoformans, first Table 4, C. neoformans, read-out: MFC",0.5 µM
same,MIC,"C. neoformans; Cryptococcus neoformans, first Table 4, C. neoformans, read-out: MIC",0.3 µM
same,MFC,"C. neoformans; Cryptococcus neoformans, second Table 4 (Example 4), C. neoformans, read-out: MFC",0.5 µg/mL
same,MIC,"C. neoformans; Cryptococcus neoformans, second Table 4 (Example 4), C. neoformans, read-out: MIC",0.3 µg/mL
same,MIC,"C. albicans; Candida albicans, first Table 4, lowest concentration completely inhibiting growth, C. albicans, read-out: MIC",0.5 µM
same,MFC,"C. albicans; Candida albicans, first Table 4, lowest concentration killing at least 99% of the fungi, C. albicans, read-out: MFC",1 µM
same,MFC,"C. albicans; Candida albicans, second Table 4 (Example 4), C. albicans, read-out: MFC",1 µg/mL
same,MIC,"C. albicans; Candida albicans, second Table 4 (Example 4), C. albicans, read-out: MIC",0.5 µg/mL
CC1OC(O[C@H]2/C=C/C=C/C=C/C=C/C=C/C=C/C=C/[C@H](C)[C@@H](O)[C@@H](C)[C@H](C)OC(=O)C[C@H](O)C[C@H](O)CC[C@@H](O)[C@H](O)C[C@H](O)C[C@]3(O)C[C@H](O)[C@@H](C(=O)NCCCCCCCCCCNC(=O)CC[C@@H](C)C4CCC5C6C(O)CC7CC(O)CCC7(C)C6CC(O)C54C)[C@H](C2)O3)C(O)C(N)C1O (stereo partly drawn) [YYM-71],toxicity towards HEK293 cells,HEK293T cells,negligible cytotoxicity
same,hemolytic activity,sheep red blood cells; [3],negligible hemolytic activities
same,hemolytic activity,sheep red blood cells; [4],negligible hemolytic activity
same,MIC,C. glabrata; [5],>16/— μg/mL
same,MFC,C. gatti; [6],> 16 µg/mL
same,MIC,C. gatti; [6],1 µg/mL
same,MFC,C. neoformans; [7],> 16 µg/mL
same,MIC,C. neoformans; [7],2 µg/mL
same,MIC,C. albicans; [8],>16/— μg/mL
CC1OC(O[C@H]2/C=C/C=C/C=C/C=C/C=C/C=C/C=C/[C@H](C)[C@@H](O)[C@@H](C)[C@H](C)OC(=O)C[C@H](O)C[C@H](O)CC[C@@H](O)[C@H](O)C[C@H](O)C[C@]3(O)C[C@H](O)[C@@H](C(=O)NCCCCCCCC(=O)N(CCCCNC(=O)C(CCCCNC(=O)CC[C@@H](C)C4CCC5C6C(O)CC7CC(O)CCC7(C)C6CC(O)C54C)NC(=O)CC[C@@H](C)C4CCC5C6C(O)CC7CC(O)CCC7(C)C6CC(O)C54C)CCCNC(=O)C(CCCCNC(=O)CC[C@@H](C)C4CCC5C6C(O)CC7CC(O)CCC7(C)C6CC(O)C54C)NC(=O)CC[C@@H](C)C4CCC5C6C(O)CC7CC(O)CCC7(C)C6CC(O)C54C)[C@H](C2)O3)C(O)C(N)C1O (stereo partly drawn) [VJ-1155],antifungal activity,[2],no antifungal activity
same,MIC,C. glabrata; Nakaseomyces glabratus,> 11 µM
same,MIC,C. gatti,> 11 µM
same,MIC,C. neoformans; Cryptococcus neoformans,> 11 µM
same,MIC,C. albicans; Candida albicans,> 11 µM
